# Active and inactive are the calls of the source. The rule behind the calls is not given here.
# Columns and labels:
# [1] = tested on: MCF7; assay: Antiproliferative activity against human MCF7 cells assessed as inhibition of cell growth measured after 48 hrs by MTT assay; type: functional, cell-based; settings: MCF7, 48 h
# [2] = target: Katanin p60 ATPase-containing subunit A1 (Homo sapiens, UniProt O75449); assay: Binding affinity to N-terminal human Katanin p60 (8 to 229 residues) expressed in Escherichia coli Rosetta (DE3) assessed as dissociation constant by SPR analysis
# Chain of Katanin p60 ATPase-containing subunit A1 (O75449 whole entry, the tested form may be a part): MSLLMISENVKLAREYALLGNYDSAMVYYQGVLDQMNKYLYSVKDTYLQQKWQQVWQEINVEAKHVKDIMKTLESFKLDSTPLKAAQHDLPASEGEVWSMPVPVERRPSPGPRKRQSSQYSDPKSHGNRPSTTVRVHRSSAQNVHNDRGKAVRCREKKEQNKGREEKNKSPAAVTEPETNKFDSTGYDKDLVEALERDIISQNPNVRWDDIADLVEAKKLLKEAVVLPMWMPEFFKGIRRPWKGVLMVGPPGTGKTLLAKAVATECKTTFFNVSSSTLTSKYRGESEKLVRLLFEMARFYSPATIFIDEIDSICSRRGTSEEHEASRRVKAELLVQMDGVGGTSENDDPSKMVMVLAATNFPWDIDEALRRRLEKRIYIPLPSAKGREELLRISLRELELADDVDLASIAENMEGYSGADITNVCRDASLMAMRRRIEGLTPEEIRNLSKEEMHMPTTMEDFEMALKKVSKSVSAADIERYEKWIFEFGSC
# [3] = target: T1, Tubulin (Homo sapiens) (UniProt P68371+Q9H4B7+P0DPH7+P68366+Q13509+Q71U36+P04350+Q3ZCM7+P07437+P68363+Q9BQE3+Q6PEY2+Q13885+Q9BVA1+Q9BUF5); assay: Inhibition of microtubule assembly in human MCF7 cells assessed as appearance of disorganized fibrous microtubule structure at 1 to 10 nM incubated for 24 hrs by immunofluorescence assay; type: cell-based; settings: dose 1-10 nM
# [4] = target: T1, Tubulin (Homo sapiens); assay: Inhibition of microtubule assembly in human MCF7 cells assessed as decrease in density at 1 to 10 nM incubated for 24 hrs by immunofluorescence assay; type: cell-based; settings: dose 1-10 nM
# [5] = tested on: MCF7; assay: Induction of cell cycle arrest in human MCF7 cells assessed as accumulation of cells at G2/M phase at 10 nM measured after 24 hrs by propidium iodide staining based flow cytometry analysis (reference value: 26%); type: functional
# [6] = tested on: MCF7; assay: Upregulation of cyclin-B1 expression level in human MCF7 cells at 1 to 10 nM by Western blot analysis; type: functional, cell-based; settings: dose 1-10 nM
# [7] = tested on: MCF7; assay: Upregulation of histone H3 phosphorylation level in human MCF7 cells at 1 to 10 nM by Western blot analysis; type: functional, cell-based; settings: dose 1-10 nM
# [8] = tested on: MCF7; assay: Induction of apoptosis in human MCF7 cells assessed as viable cells at 10 nM measured after 48 hrs by annexin-FITC and propidium iodide staining based flow cytometry analysis (reference value: 94.69%); type: functional; settings: read-out: Activity
# [9] = tested on: MCF7; assay: Induction of apoptosis in human MCF7 cells assessed as viable cells at 40 nM measured after 48 hrs by annexin-FITC and propidium iodide staining based flow cytometry analysis (reference value: 94.69%); type: functional; settings: read-out: Activity
# [10] = tested on: MCF7; assay: Induction of apoptosis in human MCF7 cells assessed as early apoptotic cells at 10 nM measured after 48 hrs by annexin-FITC and propidium iodide staining based flow cytometry analysis (reference value: 1.20%); type: functional
# [11] = tested on: MCF7; assay: Induction of apoptosis in human MCF7 cells assessed as early apoptotic cells at 20 nM measured after 48 hrs by annexin-FITC and propidium iodide staining based flow cytometry analysis (reference value: 1.20%); type: functional
# [12] = tested on: MCF7; assay: Induction of apoptosis in human MCF7 cells assessed as necrotic cells at 10 nM measured after 48 hrs by annexin-FITC and propidium iodide staining based flow cytometry analysis (reference value: 0.18%); type: functional
# [13] = tested on: MCF7; assay: Induction of apoptosis in human MCF7 cells assessed as necrotic cells at 20 nM measured after 48 hrs by annexin-FITC and propidium iodide staining based flow cytometry analysis (reference value: 0.18%); type: functional
# [14] = tested on: MCF7; assay: Induction of apoptosis in human MCF7 cells measured after 48 hrs by annexin-FITC and propidium iodide staining based flow cytometry analysis; type: functional, cell-based; settings: dose 10-40 nM
# [15] = tested on: MCF7; assay: Induction of apoptosis in human MCF7 cells assessed as upregulation of bad protein level by Western blot analysis; type: functional, cell-based; settings: dose 10-40 nM
# [16] = tested on: HUVEC; assay: Anti-angiogenesis activity in human HUVEC cells assessed as disruption of capillary tube formation at 60 nM incubated for 6 hrs by inverted microscopic analysis relative to control; type: functional
# [17] = tested on: MDA-MB-468; assay: Antiproliferative activity against human MDA-MB-468 cells assessed as inhibition of cell growth measured after 48 hrs by MTT assay; type: functional, cell-based; settings: MDA-MB-468, 48 h
# [18] = tested on: HT-29; assay: Antiproliferative activity against human HT-29 cells assessed as inhibition of cell growth measured after 48 hrs by MTT assay; type: functional, cell-based; settings: HT-29, 48 h
# [19] = tested on: SK-OV-3; assay: Antiproliferative activity against human SK-OV-3 cells assessed as inhibition of cell growth measured after 48 hrs by MTT assay; type: functional, cell-based; settings: SK-OV-3, 48 h
# [20] = tested on: PANC-1; assay: Antiproliferative activity against human PANC-1 assessed as inhibition of cell growth measured after 48 hrs by MTT assay; type: functional, cell-based; settings: PANC-1, 48 h
# [21] = tested on: MDA-MB-231; assay: Inhibition of cell migration in human MDA-MB-231 cells assessed as reduction in number of cell migrated at 10 to 40 nM incubated for 24 hrs by crystal violet staining based analysis; type: functional; settings: dose 10-40 nM
# [22] = tested on: MDA-MB-231; assay: Inhibition of cell migration in human MDA-MB-231 cells assessed as delay in wound healing at 10 to 20 nM by inverted microscopy based analysis; type: functional; settings: dose 10-20 nM
# [23] = Toxicity in ICR mouse assessed as lethal dose administered as IP dose measured upto 14 days; settings: in vivo, time < 14 day
# [24] = Acute toxicity in ICR mouse assessed as animal death at 100 mg/kg, ip measured after 3 to 14 days; type: organism-based; settings: in vivo, time 3-14 day
# [25] = Acute toxicity in ICR mouse assessed as animal death at 200 mg/kg, ip measured after 3 to 14 days; type: organism-based; settings: in vivo, time 3-14 day
# [26] = Acute toxicity in ICR mouse assessed as survival rate at 50 mg/kg, ip measured after 14 days relative to control; type: organism-based; settings: in vivo, time 14 day
# [27] = Acute toxicity in ICR mouse assessed as survival rate at 200 mg/kg, ip measured after 14 days relative to control; type: organism-based; settings: in vivo, time 14 day
# [28] = Toxicity in Balb/C nude mouse assessed as drug tolerance at 15 mg/kg, ip measured upto 2 weeks; type: organism-based; settings: in vivo, 336 h
# [29] = Toxicity in Balb/C nude mouse xenografted with A549/Taxol assessed as effect on liver at 15 mg/kg, ip measured after 14 days by H and E staining based analysis; type: organism-based, A549/TR; settings: in vivo, 336 h, time 14 day
# [30] = Toxicity in Balb/C nude mouse xenografted with A549/Taxol assessed as effect on lung at 15 mg/kg, ip measured after 14 days by H and E staining based analysis; type: organism-based, A549/TR; settings: in vivo, 336 h, time 14 day
# [31] = Toxicity in Balb/C nude mouse xenografted with A549/Taxol assessed as effect on kidney at 15 mg/kg, ip measured after 14 days by H and E staining based analysis; type: organism-based, A549/TR; settings: in vivo, 336 h, time 14 day
# [32] = Toxicity in Balb/C nude mouse xenografted with A549/Taxol assessed as effect on white blood cells count at 15 mg/kg, ip measured after 14 days by biochemical assay; type: organism-based, A549/TR; settings: in vivo, 336 h, time 14 day
# [33] = AUC (0 to t) in mouse at 3 mg/kg, iv measured upto 24 hrs by LC-MS/MS analysis; type: ADME, organism-based; settings: in vivo
# [34] = MRT (0 to t) in mouse at 3 mg/kg, iv measured upto 24 hrs by LC-MS/MS analysis; type: ADME, organism-based; settings: in vivo
# [35] = MRT (0 to infinity) in mouse at 3 mg/kg, iv measured upto 24 hrs by LC-MS/MS analysis; type: ADME, organism-based; settings: in vivo
# [36] = MRT (0 to t) in mouse at 15 mg/kg, po measured upto 24 hrs by LC-MS/MS analysis; type: ADME, organism-based; settings: in vivo
# [37] = MRT (0 to infinity) in mouse at 15 mg/kg, po measured upto 24 hrs by LC-MS/MS analysis; type: ADME, organism-based; settings: in vivo
structure (smiles),measurement,setting,value
COc1cc(-n2cnc3ccc(-c4ccc(C)c(N)c4)nc32)cc(OC)c1OC,IC50,[1],1 nM
same,Kd,[2],1810 nM
same,inhibition,[3],Active
same,inhibition,[4],Active
same,Activity,[5],~67%
same,Activity,[6],Active
same,Activity,[7],Active
same,viability at 0.01 µM,[8],53.3%
same,viability at 0.04 µM,[9],40.1%
same,Activity,[10],29.59%
same,Activity,[11],31.28%
same,Activity,[12],0.41%
same,Activity,[13],0.62%
same,Activity,[14],Dose-Dependent Effect
same,Activity,[15],Dose-Dependent Effect
same,Activity,[16],100%
same,IC50,[17],10 nM
same,IC50,[18],11 nM
same,IC50,[19],0.8 nM
same,IC50,[20],4 nM
same,inhibition,[21],Active
same,inhibition,[22],Active
same,LD50 at 336 h,[23],150 mg/kg
same,Activity,[24],Non-Toxic
same,Activity,[25],Non-Toxic
same,survival at 336 h,[26],100%
same,survival at 336 h,[27],40%
same,Activity,[28],Non-Toxic
same,Activity,[29],Non-Toxic
same,Activity,[30],Non-Toxic
same,Activity,[31],Non-Toxic
same,Activity,[32],Non-Toxic
same,AUC(0-t) at 24 h,[33],666 ng·h/mL
same,MRT last at 24 h,[34],0.49 h
same,MRT inf,[35],0.52 h
same,MRT last at 24 h,[36],1.83 h
same,MRT inf,[37],2.47 h

# Reference: ChEMBL document CHEMBL5523751, “Discovery of Novel Diaryl-Substituted Fused Heterocycles Targeting Katanin and Tubulin with Potent Antitumor and Antimultidrug Resistance Efficacy” (J Med Chem, 2024)
